According to patent US8815882B2, “Pyrazole aminopyrimidine derivatives as LRRK2 modulators” (Genentech, Inc., priority 2010, dated 2014):
pKi: −log10 of the molar value.

What follows are compounds tested against T1, LRRK2 (Homo sapiens, UniProt Q5S007, G2019S) (assay: In Vitro LRRK2 Assay (LabChip 3000, fluorescently-labeled peptide substrate, ATP)). Settings: Table 9; LRRK2 Ki (micromolar); read-out: LRRK2 Ki (KI).
T1 construct: purchased Invitrogen PV4882 (lot 567054A)
T1 sequence (Q5S007 whole entry G2019S): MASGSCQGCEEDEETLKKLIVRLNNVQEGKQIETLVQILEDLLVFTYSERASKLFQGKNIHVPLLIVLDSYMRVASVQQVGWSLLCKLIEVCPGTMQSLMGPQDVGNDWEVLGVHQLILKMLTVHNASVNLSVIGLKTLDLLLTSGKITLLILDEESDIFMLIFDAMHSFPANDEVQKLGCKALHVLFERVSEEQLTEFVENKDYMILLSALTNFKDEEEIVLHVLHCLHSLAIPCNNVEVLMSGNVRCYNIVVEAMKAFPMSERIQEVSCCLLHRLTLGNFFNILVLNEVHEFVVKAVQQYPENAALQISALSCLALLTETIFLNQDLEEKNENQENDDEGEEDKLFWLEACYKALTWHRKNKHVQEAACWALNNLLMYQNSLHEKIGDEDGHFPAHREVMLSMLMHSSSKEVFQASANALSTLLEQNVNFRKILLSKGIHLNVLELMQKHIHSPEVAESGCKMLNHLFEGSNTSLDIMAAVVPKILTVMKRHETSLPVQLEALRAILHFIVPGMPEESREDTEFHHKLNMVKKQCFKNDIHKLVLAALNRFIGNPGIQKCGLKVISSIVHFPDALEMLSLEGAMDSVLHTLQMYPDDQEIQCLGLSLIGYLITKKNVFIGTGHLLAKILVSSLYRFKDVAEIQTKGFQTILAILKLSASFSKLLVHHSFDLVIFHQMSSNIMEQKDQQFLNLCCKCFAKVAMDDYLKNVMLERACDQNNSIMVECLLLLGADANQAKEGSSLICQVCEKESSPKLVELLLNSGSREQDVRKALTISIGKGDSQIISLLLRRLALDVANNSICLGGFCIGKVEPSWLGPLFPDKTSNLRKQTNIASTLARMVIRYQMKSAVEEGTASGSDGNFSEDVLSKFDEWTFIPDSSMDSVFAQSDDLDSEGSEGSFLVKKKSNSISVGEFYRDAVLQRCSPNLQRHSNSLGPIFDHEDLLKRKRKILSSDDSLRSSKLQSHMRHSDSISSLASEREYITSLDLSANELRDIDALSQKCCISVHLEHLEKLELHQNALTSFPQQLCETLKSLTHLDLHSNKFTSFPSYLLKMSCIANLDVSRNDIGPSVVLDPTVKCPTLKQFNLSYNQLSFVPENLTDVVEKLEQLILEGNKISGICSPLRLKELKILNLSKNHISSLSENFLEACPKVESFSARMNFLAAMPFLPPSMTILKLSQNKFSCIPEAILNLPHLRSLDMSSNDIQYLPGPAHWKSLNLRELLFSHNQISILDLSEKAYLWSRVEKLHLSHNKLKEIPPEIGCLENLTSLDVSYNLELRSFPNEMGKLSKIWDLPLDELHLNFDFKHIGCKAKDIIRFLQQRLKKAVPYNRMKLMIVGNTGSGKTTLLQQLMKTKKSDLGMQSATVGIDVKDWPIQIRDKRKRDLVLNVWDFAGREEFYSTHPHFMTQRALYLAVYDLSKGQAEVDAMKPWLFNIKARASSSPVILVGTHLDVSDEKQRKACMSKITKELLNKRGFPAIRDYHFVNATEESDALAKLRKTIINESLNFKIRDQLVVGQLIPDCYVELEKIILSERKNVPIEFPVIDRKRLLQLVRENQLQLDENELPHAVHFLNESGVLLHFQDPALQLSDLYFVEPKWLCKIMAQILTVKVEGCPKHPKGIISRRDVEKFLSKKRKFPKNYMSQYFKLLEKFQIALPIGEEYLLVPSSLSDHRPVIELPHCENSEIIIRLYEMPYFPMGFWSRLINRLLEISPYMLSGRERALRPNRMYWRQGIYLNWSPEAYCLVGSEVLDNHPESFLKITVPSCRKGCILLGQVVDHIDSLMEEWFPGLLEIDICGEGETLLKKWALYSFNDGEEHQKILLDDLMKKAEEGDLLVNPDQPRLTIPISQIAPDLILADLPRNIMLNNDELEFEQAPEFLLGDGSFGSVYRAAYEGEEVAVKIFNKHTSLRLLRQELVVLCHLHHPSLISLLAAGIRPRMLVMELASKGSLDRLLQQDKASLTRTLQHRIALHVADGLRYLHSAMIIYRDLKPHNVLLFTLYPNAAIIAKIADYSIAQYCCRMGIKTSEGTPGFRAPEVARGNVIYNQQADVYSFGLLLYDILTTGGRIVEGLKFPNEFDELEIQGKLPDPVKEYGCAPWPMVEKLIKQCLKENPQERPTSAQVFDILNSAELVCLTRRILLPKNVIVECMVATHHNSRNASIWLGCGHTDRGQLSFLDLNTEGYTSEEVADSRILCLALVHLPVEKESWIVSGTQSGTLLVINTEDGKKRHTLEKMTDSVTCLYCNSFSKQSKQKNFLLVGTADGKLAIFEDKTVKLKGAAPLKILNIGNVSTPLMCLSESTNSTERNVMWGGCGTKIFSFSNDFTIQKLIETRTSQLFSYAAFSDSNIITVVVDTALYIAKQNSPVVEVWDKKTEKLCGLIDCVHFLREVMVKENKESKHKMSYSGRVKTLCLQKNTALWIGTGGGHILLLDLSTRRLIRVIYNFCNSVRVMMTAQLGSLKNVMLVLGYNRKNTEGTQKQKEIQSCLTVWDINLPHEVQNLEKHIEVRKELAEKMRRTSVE
Format: biochemical
How it was run: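 LRRK2, fluorescent peptide substrate (diluted to 4 μM before mixing), ATP and compound were incubated 2 h in the dark, then stopped. Phosphorylated and unphosphorylated peptide were separated by capillary electrophoresis and quantified by fluorescence. Ki was fitted with a tight-binding equation including enzyme concentration, S and Km; IC50 or percent inhibition were also reported.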
CNc1nc(Nc2cn(-c3ccccc3)nc2C)ncc1C#N [Example 354, 2-(3-methyl-1-phenyl-1H-pyrazol-4-ylamino)-4-(methylamino) pyrimidine-5-carbonitrile] gave a pKi of 6.92.
CNc1nc(Nc2cnn(C3COC3)c2C)ncc1C#N [Example 388, 4-Methylamino-2-(5-methyl-1-oxetan-3-yl-1H-pyrazol-4-ylamino)-pyrimidine-5-carbonitrile] gave a pKi of 7.49.

Same assay, conditions: Table 10; LRRK2 Ki (micromolar); read-out: LRRK2 Ki (KI)
Compound CNc1nc(Nc2cnn(C(C)(C)C(=O)N(C)C)c2C)ncc1C(F)(F)F [Example 399, N,N,2-trimethyl-2-(5-methyl-4-(4-(methylamino)-5-(trifluoromethyl)pyrimidin-2-ylamino)-1H-pyrazol-1-yl)propanamide] has a pKi of 6.50.
CNc1nc(Nc2cn([C@H](C)C(=O)N(C)C)nc2C)ncc1C(F)(F)F [Example 404, (R)-N,N-dimethyl-2-(3-methyl-4-(4-(methylamino)-5-(trifluoromethyl)pyrimidin-2-ylamino)-1H-pyrazol-1-yl)propanamide] was tested, and the pKi was 7.74.
CNc1nc(Nc2cn([C@@H](C)C#N)nc2C)ncc1C(F)(F)F [Example 416, (S)-2-(3-methyl-4-(4-(methylamino)-5-(trifluoromethyl)pyrimidin-2-ylamino)-1H-pyrazol-1-yl)propanenitrile] showed a pKi of 8.72.
CNc1nc(Nc2cnn([C@H](C)C(=O)N3CCCC3)c2C)ncc1C(F)(F)F [Example 411, (R)-2-(5-methyl-4-(4-(methylamino)-5-(trifluoromethyl)pyrimidin-2-ylamino)-1H-pyrazol-1-yl)-1-(pyrrolidin-1-yl)propan-1-one] was tested, and the pKi was 7.41.

Same assay, conditions: read-out: LRRK2 Ki (KI), Table 7
Work on COc1nc(Nc2cc(C3CC3)nn2C)ncc1Cl [Example 39, 5-Chloro-N-(3-cyclopropyl-1-methyl-1H-pyrazol-5-yl)-4-methoxy-pyrimidin-2-amine] yielded a pKi of 7.23.
In the case of CNc1nc(Nc2cc(C(C)C)nn2C)ncc1C(F)(F)F [Example 38, N^2-(3-isopropyl-1-methyl-1H-pyrazol-5-yl)-N^4-methyl-5-(trifluoromethyl) pyrimidine-2,4-diamine], the pKi was 7.92.
COc1nc(Nc2cn(C(C)C)nc2C)ncc1Cl [Example 29, 5-Chloro-N-(1-isopropyl-3-methyl-1H-pyrazol-4-yl)-4-methoxy-pyrimidin-2-amine] gave a pKi of 7.66.
CNc1nc(Nc2cnn(C)c2OC)ncc1C(F)(F)F [Example 84, N^2-(5-Methoxy-1-methyl-1H-pyrazol-4-yl)-N^4-methyl-5-trifluoromethyl-pyrimidine-2,4-diamine] gave a pKi of 7.13.
Cc1c(Nc2ncc(C(F)(F)F)c(N3CCCC3)n2)cnn1C [Example 13, N-(1,5-dimethyl-1H-pyrazol-4-yl)-4-(pyrrolidin-1-yl)-5-(trifluoromethyl) pyrimidin-2-amine] was tested, and the pKi was 7.92.

Same assay, conditions: read-out: LRRK2 Ki (KI), Table 8
For CNC(=O)C(C)(C)n1ncc(Nc2ncc(C(F)(F)F)c(NC)n2)c1Cl [Example 237, 2-(5-chloro-4-(4-(methylamino)-5-(trifluoromethyl)pyrimidin-2-ylamino)-1H-pyrazol-1-yl)-N,2-dimethylpropan-amide], the pKi was 7.35.
Work on CNc1nc(Nc2cnn(CC(C)(C)N3CCOCC3)c2C)ncc1C(F)(F)F [Example 288, N4-Methyl-N2-[5-methyl-1-(2-methyl-2-morpholin-4-yl-propyl)-1H-pyrazol-4-yl]-5-trifluoromethyl-pyrimidine-2,4-diamine] yielded a pKi of 8.11.
CNc1nc(Nc2cnn(C(C)(C)c3cnn(C)c3)c2C)ncc1C(F)(F)F [Example 341, N4-methyl-N2-(5-methyl-1-(2-(1-methyl-1H-pyrazol-4-yl)propan-2-yl)-1H-pyrazol-4-yl)-5-(trifluoromethyl) pyrimidine-2,4-diamine] gave a pKi of 8.21.
CNc1nc(Nc2cn([C@@H]3CCN(C)C3)nc2C)ncc1C(F)(F)F [Example 233, (R)-N4-methyl-N2-(3-methyl-1-(1-methylpyrrolidin-3-yl)-1H-pyrazol-4-yl)-5-(trifluoromethyl) pyrimidine-2,4-diamine] gave a pKi of 7.21.
Compound CCC(C)S(=O)(=O)n1cc(Nc2ncc(C(F)(F)F)c(NC)n2)c(C)n1 (stereo not drawn) [Example 220, N2-(1-(sec-butylsulfonyl)-3-methyl-1H-pyrazol-4-yl)-N4-methyl-5-(trifluoromethyl) pyrimidine-2,4-diamine] has a pKi of 7.93.
CNc1nc(Nc2cnn(C3CC(C)OC(C)C3)c2C)ncc1C(F)(F)F (stereo not drawn) [Example 272, N2-[1-(2,6-Dimethyl-tetrahydro-pyran-4-yl)-5-methyl-1H-pyrazol-4-yl]-N4-methyl-5-trifluoromethyl-pyrimidine-2,4-diamine] showed a pKi of 8.29.
CNc1nc(Nc2cnn(C3CCOCC3)c2Cl)ncc1C(F)(F)F [Example 226, N2-(5-chloro-1-(tetrahydro-2H-pyran-4-yl)-1H-pyrazol-4-yl)-N4-methyl-5-(trifluoromethyl) pyrimidine-2,4-diamine] showed a pKi of 9.15.
In the case of CNc1nc(Nc2cn(-c3cc(F)cc(F)c3)nc2C)ncc1Br [Example 116, 5-bromo-N2-(1-(3,5-difluorophenyl)-3-methyl-1H-pyrazol-4-yl)-N4-methylpyrimidine-2,4-diamine], the pKi was 9.52.
CNc1nc(Nc2cnn(C(C)c3ccccn3)c2C)ncc1C(F)(F)F (stereo not drawn) [Example 225, N4-methyl-N2-(5-methyl-1-(1-(pyridin-2-yl)ethyl)-1H-pyrazol-4-yl)-5-(trifluoromethyl) pyrimidine-2,4-diamine] showed a pKi of 8.42.
CNc1nc(Nc2cnn(CC3CC3)c2C)ncc1C(F)(F)F [Example 165, N2-(1-(cyclopropyl-methyl)-5-methyl-1H-pyrazol-4-yl)-N4-methyl-5-(trifluoromethyl) pyrimidine-2,4-diamine] showed a pKi of 8.92.
For CNc1nc(Nc2cn(C(C)(C)CN3CCOCC3)nc2C)ncc1C(F)(F)F [Example 299, N2-[1-(1,1-Dimethyl-2-morpholin-4-yl-ethyl)-3-methyl-1H-pyrazol-4-yl]-N4-methyl-5-trifluoromethyl-pyrimidine-2,4-diamine], the pKi was 7.64.
Work on CCNc1nc(Nc2cn(C(C)(C)c3nnc(C)[nH]3)nc2C)ncc1C(F)(F)F [Example 331, N4-Ethyl-N2-{3-methyl-1-[1-methyl-1-(5-methyl-4H-[1,2,4]triazol-3-yl)-ethyl]-1H-pyrazol-4-yl}-5-trifluoromethyl-pyrimidine-2,4-diamine] yielded a pKi of 9.10.
With CCNc1nc(Nc2cnn(CC(C)(C)O)c2C)ncc1C(F)(F)F [Example 296, 1-[4-(4-Ethylamino-5-trifluoromethyl-pyrimidin-2-ylamino)-5-methyl-pyrazol-1-yl]-2-methyl-propan-2-ol] the pKi was 8.64.
CNc1nc(Nc2cnn(C)c2C2CC2)ncc1C(F)(F)F [Example 178, N2-(5-cyclopropyl-1-methyl-1H-pyrazol-4-yl)-N4-methyl-5-(trifluoromethyl) pyrimidine-2,4-diamine] showed a pKi of 7.92.
Compound CNc1nc(Nc2cn(C3CC(C)OC(C)C3)nc2C)ncc1C(F)(F)F (stereo not drawn) [Example 191, N2-(1-(2,6-dimethyltetrahydro-2H-pyran-4-yl)-3-methyl-1H-pyrazol-4-yl)-N4-methyl-5-(trifluoromethyl) pyrimidine-2,4-diamine] has a pKi of 7.07.
CNc1nc(Nc2cn([C@H](C)COC)nc2C)ncc1C(F)(F)F [Example 200, (R)-N2-(1-(1-methoxypropan-2-yl)-3-methyl-1H-pyrazol-4-yl)-N4-methyl-5-(trifluoromethyl) pyrimidine-2,4-diamine] gave a pKi of 7.89.
Work on CCNc1nc(Nc2cnn([C@H]3CCCN(C4COC4)C3)c2C)ncc1C(F)(F)F [Example 307, N4-Ethyl-N2-[5-methyl-1-((S)-1-oxetan-3-yl-piperidin-3-yl)-1H-pyrazol-4-yl]-5-trifluoromethyl-pyrimidine-2,4-diamine] yielded a pKi of 9.52.
In the case of CNc1nc(Nc2cn(Cc3ccn(C)n3)nc2C)ncc1C(F)(F)F [Example 325, N4-Methyl-N2-[3-methyl-1-(1-methyl-1H-pyrazol-3-ylmethyl)-1H-pyrazol-4-yl]-5-trifluoromethyl-pyrimidine-2,4-diamine], the pKi was 8.42.
Cc1c(Nc2ncc(C(F)(F)F)c(NC3CC3)n2)cnn1S(C)(=O)=O [Example 301, N4-Cyclopropyl-N2-(1-methanesulfonyl-5-methyl-1H-pyrazol-4-yl)-5-trifluoromethyl-pyrimidine-2,4-diamine] showed a pKi of 8.68.
CNc1nc(Nc2cn(CC(C)(C)O)nc2C)ncc1C(F)(F)F [Example 250, 2-Methyl-1-[3-methyl-4-(4-methylamino-5-trifluoromethyl-pyrimidin-2-ylamino)-pyrazol-1-yl]-propan-2-ol] showed a pKi of 7.91.
For CNc1nc(Nc2cnn(C3CCS(=O)(=O)CC3)c2C)ncc1C(F)(F)F [Example 196, N4-methyl-N2-(5-methyl-1-(tetrahydro-2H-1,1-dioxo-thiopyran-4-yl)-1H-pyrazol-4-yl)-5-(trifluoromethyl) pyrimidine-2,4-diamine], the pKi was 7.33.
CCNc1nc(Nc2cnn(C3CCOCC3)c2C)ncc1C(F)(F)F [Example 158, N4-ethyl-N2-(5-methyl-1-(tetrahydro-2H-pyran-4-yl)-1H-pyrazol-4-yl)-5-(trifluoromethyl) pyrimidine-2,4-diamine] showed a pKi of 9.52.
Work on CCNc1nc(Nc2cn(C3CCN(C(=O)C(C)C)CC3)nc2C)ncc1C(F)(F)F [Example 268, 1-{4-[4-(4-Ethylamino-5-trifluoromethyl-pyrimidin-2-ylamino)-3-methyl-pyrazol-1-yl]-piperidin-1-yl}-2-methyl-propan-1-one] yielded a pKi of 8.11.
CNc1nc(Nc2[nH]ncc2C)ncc1C(F)(F)F [Example 206, N4-methyl-N2-(4-methyl-1H-pyrazol-5-yl)-5-(trifluoromethyl) pyrimidine-2,4-diamine] was tested, and the pKi was 6.63.
In the case of CCNc1nc(Nc2cnn(CCOC)c2C)ncc1C(F)(F)F [Example 295, N4-Ethyl-N2-[1-(2-methoxy-ethyl)-5-methyl-1H-pyrazol-4-yl]-5-trifluoromethyl-pyrimidine-2,4-diamine], the pKi was 9.40.
